Reference: patent US6043258A (Eli Lilly and Company, priority 1998, dated 2000)

Assays:
5HT1D receptor subtype = assay: 5HT1D receptor affinity; format: binding
[1] = tested on: m4 receptors (CHO m4 cells); assay: cAMP formation in CHO m4 cells treated with pertussis toxin; format: cell-based
Excerpt: Muscarinic agonists stimulate the formation of cAMP up to 10 fold in CHO m4 cells treated with pertussisi toxin and the pharmacology is consistent with the mediation by m4 receptors. Eckols K. Soc. Neurosci Abstr., 21:2040 (1995).

[2] = target: muscarinic receptors (^3 H-oxotremorine-M binding); assay: ^3 H-oxotremorine-M binding inhibition; conditions: radioligand ^3 H-oxotremorine-M; read-out: inhibition constant (Ki), binding of ^3 H-oxotremorine-M
D2 receptor subtype = assay: pharmacological studies at D2 receptor subtype

CCCCCCOc1nsnc1C1=CCCN(C)C1 [xanomeline, 3-(4-hexyloxy-1,2,5-thiadiazol-3-yl)-1,2,5,6-tetrahydro-1-methylpyridine]
Ki (5HT1D receptor subtype): 180 nM | stimulation of the formation of cAMP [1]: efficaciously and potently stimulated the formation of CAMP | Ki [2]: 2 nM | activity at the D2 receptor subtype (D2 receptor subtype): active at the D2 receptor subtype
